Assay results from PubChem BioAssay (NCI).
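GI50: concentration for 50% inhibition of growth. The concentration for full growth arrest is given as TGI.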

Key:
Assay in all cases: DTP human tumour cell line panel, 384-well format
[1] = test system: 786-0 renal
[2] = test system: A498 renal
[3] = test system: A549 NSCLC
[4] = test system: ACHN renal
[5] = test system: BT-549 breast
[6] = test system: CCRF-CEM leukemia
[7] = test system: DU-145 prostate
[8] = test system: EKVX NSCLC
[9] = test system: HCT-116 colon
[10] = test system: HL-60(TB) leukemia
[11] = test system: HOP-62 NSCLC
[12] = test system: HOP-92 NSCLC
[13] = test system: HS 578T breast
[14] = test system: HT29 colon
[15] = test system: K-562 leukemia
[16] = test system: KM12 colon
[17] = test system: LOX IMVI melanoma
[18] = test system: M14 melanoma
[19] = test system: MALME-3M melanoma
[20] = test system: MCF7 breast
[21] = test system: MDA-MB-435 melanoma
[22] = test system: NCI-H226 lung
[23] = test system: NCI-H23 lung
[24] = test system: NCI-H322M lung
[25] = test system: NCI-H522 lung
[26] = test system: NCI/ADR-RES ovarian
[27] = test system: OVCAR-3 ovarian
[28] = test system: OVCAR-4 ovarian
[29] = test system: OVCAR-5 ovarian
[30] = test system: OVCAR-8 ovarian
[31] = test system: PC-3 prostate
[32] = test system: RPMI-8226 leukemia
[33] = test system: SF-268 CNS
[34] = test system: SF-295 CNS
[35] = test system: SF-539 CNS
[36] = test system: SK-MEL-2 melanoma
[37] = test system: SK-MEL-5 melanoma
[38] = test system: SK-OV-3 ovarian
[39] = test system: SN12C renal
[40] = test system: SNB-19 CNS
[41] = test system: SNB-75 CNS
[42] = test system: SW-620 colon
[43] = test system: T-47D breast
[44] = test system: U251 glioblastoma
[45] = test system: UACC-257 melanoma
[46] = test system: UACC-62 melanoma
[47] = test system: UO-31 renal

COc1ccc([C@@H](O)c2cc(-c3ncnc4cc(N5CCOCC5)ccc34)c(F)cc2Cl)nn1
GI50 [1]: 2.6 µM
TGI [1]: 17.8 µM
GI50 [2]: 0.372 µM
TGI [2]: 1.99 µM
GI50 [3]: 2.6 µM
TGI [3]: 12.3 µM
GI50 [4]: 2.38 µM
TGI [4]: 16.5 µM
GI50 [5]: 1.19 µM
TGI [5]: 9.64 µM
GI50 [6]: 2.2 µM
TGI [6]: 7 µM
GI50 [7]: 4.21 µM
TGI [7]: 18.8 µM
GI50 [8]: 1.54 µM
TGI [8]: 10.7 µM
GI50 [9]: 3.88 µM
TGI [9]: 16.4 µM
GI50 [10]: 0.522 µM
TGI [10]: 1.94 µM
GI50 [11]: 4.86 µM
TGI [11]: 26 µM
GI50 [12]: 0.583 µM
TGI [12]: 5.19 µM
GI50 [13]: 0.864 µM
TGI [13]: 3.7 µM
GI50 [14]: 3.36 µM
TGI [14]: 16.3 µM
GI50 [15]: 3.55 µM
TGI [15]: 22 µM
GI50 [16]: 5.81 µM
TGI [16]: 19 µM
GI50 [17]: 1.81 µM
TGI [17]: 4.44 µM
GI50 [18]: 4.23 µM
TGI [18]: 16.9 µM
GI50 [19]: 1.66 µM
TGI [19]: 10.7 µM
GI50 [20]: 0.843 µM
TGI [20]: 10.4 µM
GI50 [21]: 5.07 µM
TGI [21]: 20.6 µM
GI50 [22]: 3.64 µM
TGI [22]: 24.6 µM
GI50 [23]: 2.49 µM
TGI [23]: 14.9 µM
GI50 [24]: 3.88 µM
TGI [24]: 21 µM
GI50 [25]: 1.29 µM
TGI [25]: 8.26 µM
GI50 [26]: 3.97 µM
TGI [26]: 17.6 µM
GI50 [27]: 1.17 µM
TGI [27]: 9.62 µM
GI50 [28]: 5.02 µM
TGI [28]: 26.2 µM
GI50 [29]: 3.47 µM
TGI [29]: 21 µM
GI50 [30]: 3.97 µM
TGI [30]: 22.4 µM
GI50 [31]: 0.889 µM
TGI [31]: 11.1 µM
GI50 [32]: 1.09 µM
TGI [32]: 2.86 µM
GI50 [33]: 6.38 µM
TGI [33]: 26.8 µM
GI50 [34]: 1.87 µM
TGI [34]: 12.6 µM
GI50 [35]: 3.38 µM
TGI [35]: 28.4 µM
GI50 [36]: 16.1 µM
TGI [36]: 31.2 µM
GI50 [37]: 1.61 µM
TGI [37]: 5.92 µM
GI50 [38]: 1.57 µM
TGI [38]: 6.2 µM
GI50 [39]: 1.47 µM
TGI [39]: 17.1 µM
GI50 [40]: 7.21 µM
TGI [40]: 28.3 µM
GI50 [41]: 0.668 µM
TGI [41]: 3.15 µM
GI50 [42]: 5.21 µM
TGI [42]: 18.9 µM
GI50 [43]: 0.531 µM
TGI [43]: 2.61 µM
GI50 [44]: 8.43 µM
TGI [44]: 26.1 µM
GI50 [45]: 3.59 µM
TGI [45]: 17.8 µM
GI50 [46]: 1.16 µM
TGI [46]: 11.8 µM
GI50 [47]: 1.95 µM
TGI [47]: 11.6 µM
